According to paper PMC6530635, “A Novel Single-Site Mutation in the Catalytic Domain of Protoporphyrinogen Oxidase IX (PPO) Confers Resistance to PPO-Inhibiting Herbicides” (Frontiers in Plant Science, 2019):

Key:
Type in all cases: biochemical
[1] = system: recombinant Amaranthus tuberculatus PPO2 G399A
[2] = system: recombinant Amaranthus tuberculatus PPO2 ΔG210
[3] = system: recombinant Amaranthus tuberculatus PPO2 R128L

Row | Compound | Resistance factor G399A (IC50 mutant / IC50 sensitive PPO2) [1] | Resistance factor ΔG210 (IC50 mutant / IC50 sensitive PPO2) [2] | Resistance factor R128L (IC50 mutant / IC50 sensitive PPO2) [3]
1 | CCOc1cc(Oc2ccc(C(F)(F)F)cc2Cl)ccc1[N+](=O)[O-] [Oxyfluorfen] | 18548 | 982 | 74
2 | Cc1nn(-c2cc(CC(Cl)C(=O)O)c(Cl)cc2F)c(=O)n1C(F)F (stereo not shown) [Carfentrazone] | 116 | 3957 | 3
3 | C=CCOC(=O)C(C)(C)OC(=O)c1cc(-n2c(=O)cc(C(F)(F)F)n(C)c2=O)ccc1Cl [Butafenacil] | 741 | 17578 | 23
4 | CC(C)Oc1cc(-n2nc(C(C)(C)C)oc2=O)c(Cl)cc1Cl [Oxadiazon] | 285 | 151 | 1
5 | Cc1nn(-c2cc(NS(C)(=O)=O)c(Cl)cc2Cl)c(=O)n1C(F)F [Sulfentrazone] | 282 |  | 
6 | CCOC(=O)COc1cc(-c2nn(C)c(OC(F)F)c2Cl)c(F)cc1Cl [Pyraflufen-ethyl] | 11816 | 1083 | 1
7 | COC(=O)CSc1cc(/N=c2\sc(=O)n3n2CCCC3)c(F)cc1Cl [Fluthiacet-methyl] | 3567 | 94 | 4
8 | C#CCN(C)c1c(C#N)cnn1-c1nn2c(c1Cl)CCCC2 [Pyraclonil] | 799 | 782 | 0
9 | CCOC(=O)C(C)OC(=O)c1cc(Oc2ccc(C(F)(F)F)cc2Cl)ccc1[N+](=O)[O-] (stereo not shown) [Lactofen] | 28167 | 18271 | 2812
10 | C#CCN1C(=O)COc2cc(F)c(N3C(=O)C4=C(CCCC4)C3=O)cc21 [Flumioxazin] | 868 | 3157 | 2631
11 | O=C(O)c1cc(Oc2ccc(C(F)(F)F)cc2Cl)ccc1[N+](=O)[O-] [Acifluorfen] | >541 | >541 | >541
